Measurements as given in US5792831A, “Analogues of magainin peptides containing D-amino acids” (priority 1994, dated 1998).
In brackets after ≈: the same amount, converted by molar mass. Square brackets hold non-standard residues; d marks the D form. Ends that are not written are not given here. Peptide text beside a SMILES is read from it. * marks the point of attachment. Octanoyl = CCCCCCCC(=O)*

Legend:
Format in all cases: cell-based
E. coli ATCC 25922 = test: Antibacterial MIC assay, microtiter broth dilution (NCCLS M7-T2); conditions: Mueller Hinton broth, 16-20 hours at 37° C.
Description: (§1) The procedure for the following antibacterial assay is based upon the guidelines of the National Committee for Clinical Laboratory Standards, Document M7-T2, Volume 8, No. 8, 1988.
(§2) were prepared at a concentration of 512 μpg/ml in sterile deionized distilled water and stored at -70° C.
(§3) 1.5×10^5 CFUs/ml of either S. aureus ATCC 25923, E. coli ATCC 25922, P. aeruginosa ATCC 27853, or C. albicans were added to the wells in full strength Mueller Hinton broth (BBL 11443) from a mid-log culture. The inoculums are standarized spectrophotometrically at 600 nm and is verified by colony counts. The plates are incubated for 16-20hours at 37° C., and the minimal inhibitory concentration (MIC) for each peptide is determined. Minimal inhibitory concentration is defined as the lowest concentration of peptide which produces a clear well in the microtiter plate.

P. aeruginosa ATCC 27853 = test: as above; conditions: Mueller Hinton broth, 16-20 hours at 37° C.
Description: as §1, §2, §3

S. aureus ATCC 25923 = test: as above; conditions: Mueller Hinton broth, 16-20 hours at 37° C.
Description: as §1, §2, §3

C. albicans = test: MIC assay, microtiter broth dilution (NCCLS M7-T2); conditions: Mueller Hinton broth, 16-20 hours at 37° C.
Description: as §1, §2, §3

[1] = tested on: WM-239-A (metastatic melanoma); test: Melanoma growth reduction, 3H-thymidine incorporation (Example 4); conditions: 2% tumor medium
Description: (§4) Melanoma cell lines WM-239-A (metastatic melanoma), WM278 (primary melanoma), WM793 (primary melanoma) and WM1158 (metastatic melanoma) were seeded in 24-well plates at a concentration of 7.5×10^4 cells/ml containing 2% tumor medium.
(§5) Peptides (SEQ ID NO:6) and D-(SEQ ID NO:6), in which each amino acid residue is a D-amino residue or a glycine residue, were frozen at -20° C. in […] aliquots at a concentration of 25 mg/ml. Each peptide was then dissolved in sterile distilled water at a dilution of 1:1,000 or 1:5,000 to provide peptide concentrations of 25 μg/ml or 5 μg/ml, respectively. The peptides at the 25 μg/ml or 5 μg/ml concentrations were then added to the plates containing the melanoma cells. The amount of ^3 H-thymidine incorporation for each well was taken on days 1, 3, and 7.

[2] = tested on: WM1158 (metastatic melanoma); test: as above; conditions: 2% tumor medium
Description: as §4, §5

WM278 (primary melanoma) = test: as above; conditions: 2% tumor medium
Description: as §4, §5

WM793 (primary melanoma) = test: as above; conditions: 2% tumor medium
Description: as §4, §5

[3] = tested on: melanoma cell line WM1791A; test: 3H-thymidine radioactive counts, melanoma cells (Example 6); conditions: 2% tumor media
melanoma cell line WM35 = test: as above; conditions: 2% tumor media
melanoma cell line WM852 = test: as above; conditions: 2% tumor media
[4] = tested on: melanoma cell line WM983A; test: as above; conditions: 2% tumor media
[5] = tested on: melanoma cell line WM1366; test: as above; conditions: 2% tumor media
melanoma cell line WM115 = test: as above; conditions: 2% tumor media
[6] = tested on: melanoma cell line WM983B; test: as above; conditions: 2% tumor media
melanoma cell line WM39 = test: as above; conditions: 2% tumor media
melanoma cell line WM8 = test: as above; conditions: 2% tumor media
[7] = tested on: melanoma cell line WM1158; test: as above; conditions: 2% tumor media
[8] = tested on: melanoma cell line SkMe123; test: as above; conditions: 2% tumor media
melanoma cell line WM164 = test: as above; conditions: 2% tumor media
[9] = tested on: melanoma cell line WM902B; test: as above; conditions: 2% tumor media
melanoma cell line WM973 = test: as above; conditions: 2% tumor media
[10] = tested on: melanoma cell line WM239A; test: as above; conditions: 2% tumor media

## CCCCCCCC(=O)N[C@@H](CC(C)C)C(=O)N[C@@H](CCCCN)C(=O)N[C@@H](CCCCN)C(=O)N[C@@H](CC(C)C)C(=O)N[C@@H](CC(C)C)C(=O)N[C@@H](CCCCN)C(=O)N[C@@H](CCCCN)C(=O)N[C@@H](CC(C)C)C(=O)N[C@@H](CCCCN)C(=O)N[C@@H](CCCCN)C(=O)N[C@@H](CC(C)C)C(N)=O [Oct-(SEQ ID NO:11)-NH2, reference compound] (Octanoyl-LKKLLKKLKKL-NH2)
E. coli ATCC 25922
  MIC E. coli: 8 µg/mL (≈ 5.41 µM)
P. aeruginosa ATCC 27853
  MIC P. aeruginosa: 4 µg/mL (≈ 2.71 µM)
S. aureus ATCC 25923
  MIC S. aureus: 4 µg/mL (≈ 2.71 µM)
C. albicans
  MIC C. albicans: 32 µg/mL (≈ 21.6 µM)

## CCCCCCCC(=O)N[C@H](CC(C)C)C(=O)N[C@H](CCCCN)C(=O)N[C@H](CCCCN)C(=O)N[C@H](CC(C)C)C(=O)N[C@H](CC(C)C)C(=O)N[C@H](CCCCN)C(=O)N[C@H](CCCCN)C(=O)N[C@H](CC(C)C)C(=O)N[C@H](CCCCN)C(=O)N[C@H](CCCCN)C(=O)N[C@H](CC(C)C)C(N)=O [Oct-D-(SEQ ID NO:11)-NH2] (Octanoyl-[dL][dK][dK][dL][dL][dK][dK][dL][dK][dK][dL]-NH2)
E. coli ATCC 25922
  MIC E. coli: 8 µg/mL (≈ 5.41 µM)
P. aeruginosa ATCC 27853
  MIC P. aeruginosa: 4 µg/mL (≈ 2.71 µM)
S. aureus ATCC 25923
  MIC S. aureus: 4 µg/mL (≈ 2.71 µM)
C. albicans
  MIC C. albicans: 32 µg/mL (≈ 21.6 µM)

## D-(SEQ ID NO:6): each amino acid residue is a D-amino residue or a glycine residue; possibly the same as D-(SEQ ID NO:6)-NH2 (G[dI]G[dK][dF][dL][dK][dS][dA][dK][dK][dF]G[dK][dA][dF][dV][dK][dI][dL][dN][dS]; not fully specified)
[1]; dose 5 μg/ml
  % Growth Reduction (7 days) WM239-A: 82.0%
[1]; dose 25 μg/ml
  % Growth Reduction (7 days) WM239-A: 96.3%
[2]; dose 5 μg/ml
  % Growth Reduction (7 days) WM1158: 98.0%
[2]; dose 25 μg/ml
  % Growth Reduction (7 days) WM1158: 98.8%
WM278 (primary melanoma); dose 5 μg/ml
  % Growth Reduction (7 days) WM-278: 93.1%
WM278 (primary melanoma); dose 25 μg/ml
  % Growth Reduction (7 days) WM-278: 96.1%
WM793 (primary melanoma); dose 5 μg/ml
  % Growth Reduction (7 days) WM793: 95.6%
WM793 (primary melanoma); dose 25 μg/ml
  % Growth Reduction (7 days) WM793: 98.4%
[3]; dose 1 μg/ml
  Radioactive Counts WM1791A: 5655
[3]; dose 5 μg/ml
  Radioactive Counts WM1791A: 1065
[3]; dose 25 μg/ml
  Radioactive Counts WM1791A: 456
Melanoma cell line WM35; dose 1 μg/ml
  Radioactive Counts WM35: 47241
Melanoma cell line WM35; dose 5 μg/ml
  Radioactive Counts WM35: 3187
Melanoma cell line WM35; dose 25 μg/ml
  Radioactive Counts WM35: 360
Melanoma cell line WM852; dose 1 μg/ml
  Radioactive Counts WM852: 169000
Melanoma cell line WM852; dose 5 μg/ml
  Radioactive Counts WM852: 2699
Melanoma cell line WM852; dose 25 μg/ml
  Radioactive Counts WM852: 554
[4]; dose 1 μg/ml
  Radioactive Counts WM983A: 335000
[4]; dose 5 μg/ml
  Radioactive Counts WM983A: 5598
[4]; dose 25 μg/ml
  Radioactive Counts WM983A: 313
[5]; dose 1 μg/ml
  Radioactive Counts WM1366: 288000
[5]; dose 5 μg/ml
  Radioactive Counts WM1366: 1910
[5]; dose 25 μg/ml
  Radioactive Counts WM1366: 1692
Melanoma cell line WM115; dose 1 μg/ml
  Radioactive Counts WM115: 222000
Melanoma cell line WM115; dose 5 μg/ml
  Radioactive Counts WM115: 373
Melanoma cell line WM115; dose 25 μg/ml
  Radioactive Counts WM115: 263
[6]; dose 1 μg/ml
  Radioactive Counts WM983B: 225000
[6]; dose 5 μg/ml
  Radioactive Counts WM983B: 135
[6]; dose 25 μg/ml
  Radioactive Counts WM983B: 115
Melanoma cell line WM39; dose 1 μg/ml
  Radioactive Counts WM39: 27635
Melanoma cell line WM39; dose 5 μg/ml
  Radioactive Counts WM39: 1308
Melanoma cell line WM39; dose 25 μg/ml
  Radioactive Counts WM39: 273
Melanoma cell line WM8; dose 1 μg/ml
  Radioactive Counts WM8: 19226
Melanoma cell line WM8; dose 5 μg/ml
  Radioactive Counts WM8: 248
Melanoma cell line WM8; dose 25 μg/ml
  Radioactive Counts WM8: 99
[7]; dose 1 μg/ml
  Radioactive Counts WM1158: 131000
[7]; dose 5 μg/ml
  Radioactive Counts WM1158: 884
[7]; dose 25 μg/ml
  Radioactive Counts WM1158: 2108
[8]; dose 1 μg/ml
  Radioactive Counts SkMe123: 114846
[8]; dose 5 μg/ml
  Radioactive Counts SkMe123: 2028
[8]; dose 25 μg/ml
  Radioactive Counts SkMe123: 429
Melanoma cell line WM164; dose 1 μg/ml
  Radioactive Counts WM164: 158000
Melanoma cell line WM164; dose 5 μg/ml
  Radioactive Counts WM164: 4143
Melanoma cell line WM164; dose 25 μg/ml
  Radioactive Counts WM164: 331
[9]; dose 1 μg/ml
  Radioactive Counts WM902B: 49299
[9]; dose 5 μg/ml
  Radioactive Counts WM902B: 150
[9]; dose 25 μg/ml
  Radioactive Counts WM902B: 75
Melanoma cell line WM973; dose 1 μg/ml
  Radioactive Counts WM973: 81675
Melanoma cell line WM973; dose 5 μg/ml
  Radioactive Counts WM973: 7284
Melanoma cell line WM973; dose 25 μg/ml
  Radioactive Counts WM973: 770
[10]; dose 1 μg/ml
  Radioactive Counts WM239A: 38053
[10]; dose 5 μg/ml
  Radioactive Counts WM239A: 221
[10]; dose 25 μg/ml
  Radioactive Counts WM239A: 459
